Data set [1] can be described thus: TNS assay, surface pKa of lipid nanoparticles. Format: physicochemical. Put shortly:
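Empty LNPs containing the ionizable lipid (LM02 composition, 0.781 mM total lipid before mixing) were combined with TNS in 10 mM HEPES, 10 mM MES, 10 mM NH4OAc, 130 mM NaCl buffers at pH 3–9 in 0.5 steps. Fluorescence was read at room temperature (ex 321/em 445 nm); pKa was taken as the pH of half-maximal intensity from a sigmoidal fit.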

Data set [2] relates to isolated primary human T cells. Kind of data set: GFP mRNA-LNP transfection of primary human T cells, flow cytometry. Format: cell-based. Conditions: for amount of protein produced (MFI) in human T cells compared with MC3: summary; for protein expression (GFP MFI) compared with MC3: FIG. 5, CT10, N/P 8, 500 ng mRNA per 125,000 cells, 3 days after activation, 48 h. An outline of the steps:
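Negatively selected primary human T cells, dosed with GFP mRNA-LNPs either fresh at 2 μg mRNA per 500,000 cells (40:20:37.5:2.5 mol% ionizable lipid/DSPC/cholesterol/BRIJ S10, N/P 10) or post-activation at 500 ng per 125,000 cells (CT10, N/P 8). After 48 h, flow cytometry with viability and CD4/CD8/CD25 staining read GFP MFI and transfection efficiency.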

Data set [3] is described as follows: LNP size and PDI by dynamic light scattering. Format: physicochemical. Put shortly: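 Hydrodynamic diameter measured by DLS with a 633 nm He/Ne laser in backscatter mode (173°), averaging 10 runs of two cycles per sample. Size reported as Z-average (harmonic intensity-averaged diameter), with polydispersity given as PDI.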
Data set [4] in a line: Nucleic acid encapsulation efficiency by RiboGreen assay. The format is physicochemical.
[5] abbreviates: Table 1, formulated lipid nanoparticles, TNS assay, read-out: Exp. pKa.
[6] abbreviates: Table 6, GFP-encoded LNPs, CT10, N/P 8.
Setting [7] is: Table 7, EPO mRNA LNPs, LM02, N/P 6.

Where two headings read alike, the source gives them in different places.

As usually defined, the pKa is the negative logarithm of the acid dissociation constant. As for `CCCCC/C=C\C/C=C\CCCCCCCC(=O)O[C@@H]1[C@@H](OC(=O)CCCCCCC/C=C\C/C=C\CCCCC)CO[C@@H]1COC(=O)CCCN(C)C` (racemic) [PNI 121], the pKa in data set [1] (setting [5]) was determined as 6.83; in data set [1] (Table 5, read-out: pKa Exp.) it was 6.83; in data set [1] (Table 8, read-out: Exp.pKa) it was 6.8. The “transfection efficiency compared with MC3” value in data set [2] (FIG. 1, eGFP mRNA LNP, CT10, N/P 10, 48 hours after treatment) was “greater than MC3”. Also, in data set [2] (FIG. 2, six donors, treated 7 days post activation, 48 hours), the “transfection efficiency compared with MC3 in various donors” value was “greater than those containing clinically validated MC3”. The “viability of T cells compared to untreated cells” value in data set [2] (six-donor experiment, not shown) is listed as “unaffected”. The “amount of protein produced (MFI) in human T cells compared with MC3” value (“amount … in human T cells compared with MC3” for short) in data set [2] is on record as “better than MC3”. The “Diameter (Z. ave, nm)” value in data set [3] (setting [6]) was found to be 100.7 nm; in data set [3] (setting [7]), 93.5 nm. The “Polydispersity Index (PDI)” value in data set [3] (setting [6]) amounted to 0.16; in data set [3] (setting [7]) it was 0.10. Further, the “Encapsulation Efficiency (%)” value in data set [4] (setting [6]) is 87.3%; in data set [4] (setting [7]), 98.8%.
Regarding `CCCCC/C=C\C/C=C\CCCCCCCC(=O)O[C@@H]1[C@@H](OC(=O)CCCCCCC/C=C\C/C=C\CCCCC)CO[C@@H]1COC(=O)C1CCN(C)C1` (mixture of isomers) [PNI 328], the pKa in data set [1] (setting [5]) stood at 6.09; in data set [1] (Table 8, read-out: Exp.pKa), 6.09. The “protein expression (GFP MFI) compared with MC3” value in data set [2] was “higher levels of protein expression than MC3”. Moreover, the “amount … in human T cells compared with MC3” value in data set [2] was “better than MC3”. Besides, the “Diameter (Z. ave, nm)” value in data set [3] (setting [6]) was 92.6 nm; in data set [3] (setting [7]), 66.9 nm. In addition, the “Polydispersity Index (PDI)” value in data set [3] (setting [6]) is on record as 0.16; in data set [3] (setting [7]), 0.02. In addition, the results for the “Encapsulation Efficiency (%)” value in data set [4] (setting [6]) and in data set [4] (setting [7]) were 92.5% and 96.2%, respectively.
As to `CCCCC/C=C\C/C=C\CCCCCCCC(=O)O[C@@H]1[C@@H](OC(=O)CCCCCCC/C=C\C/C=C\CCCCC)CO[C@@H]1COC(=O)C1(C)CCN(C)C1` (mixture of isomers) [PNI 329], in data set [1] (setting [5]), the pKa was determined as 5.88. Further, the pKa in data set [1] (Table 8, read-out: Exp.pKa) is 5.88. Besides, in data set [2], the “amount of protein produced (MFIs) compared with MC3” value was “better than MC3”, the “protein expression (GFP MFI) compared with MC3” value is “higher levels of protein expression than MC3” and the “amount … in human T cells compared with MC3” value is given as “better than MC3”. Also, in data set [3] (setting [6]), the “Diameter (Z. ave, nm)” value is recorded as 74.1 nm and the “Polydispersity Index (PDI)” value is listed as 0.11. Besides, in data set [3] (setting [7]), the “Diameter (Z. ave, nm)” value was 70.9 nm and the “Polydispersity Index (PDI)” value is given as 0.04. Moreover, in data set [4] (setting [6]), the “Encapsulation Efficiency (%)” value is on record as 93.2%. In addition, the “Encapsulation Efficiency (%)” value in data set [4] (setting [7]) is given as 94.4%.
In the case of `CCCCC/C=C\C/C=C\CCCCCCCC(=O)O[C@@H]1[C@@H](OC(=O)CCCCCCC/C=C\C/C=C\CCCCC)CO[C@@H]1COC(=O)CCCN1CCCC1` (racemic) [PNI 539], the pKa in data set [1] (setting [5]) worked out at 6.6. Further, the pKa in data set [1] (Table 8, read-out: Exp.pKa) was 6.6. In data set [3] (setting [7]), the “Diameter (Z. ave, nm)” value is 86.9 nm and the “Polydispersity Index (PDI)” value was found to be 0.13. The “Encapsulation Efficiency (%)” value in data set [4] (setting [7]) is on record as 88.2%.

Values taken from US12636368B2, “Ionizable lipids for nucleic acid delivery” (Global Life Sciences Solutions Canada ULC, priority 2019, dated 2026).
